From ChEMBL document CHEMBL5393441, “Bicyclic heterocyclic compounds as inhibitors ofbcdin3d activity” (2022)
pIC50: −log10 of the molar value. Activity calls are given as the source filed them. The calls are words filed in the database; no cut-off is given here.

Assays:
[1] = molecular target: T1, RNA 5'-monophosphate methyltransferase (Homo sapiens, UniProt Q7Z5W3); assay: Inhibition of BCDIN3D (unknown origin) using mini-helix and SAM as substrate incubated for 1 hr by RapidFire High Throughput mass spectrometry
T1 sequence (Q7Z5W3 whole entry): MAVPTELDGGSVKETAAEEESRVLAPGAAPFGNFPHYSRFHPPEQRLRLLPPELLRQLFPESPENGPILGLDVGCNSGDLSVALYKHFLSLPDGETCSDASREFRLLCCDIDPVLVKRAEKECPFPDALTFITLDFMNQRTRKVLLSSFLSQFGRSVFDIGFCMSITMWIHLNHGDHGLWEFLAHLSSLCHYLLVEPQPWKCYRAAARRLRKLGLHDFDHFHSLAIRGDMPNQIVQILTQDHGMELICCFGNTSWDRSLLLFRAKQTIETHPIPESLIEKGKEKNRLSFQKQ

[2] = molecular target: T1, RNA 5'-monophosphate methyltransferase; assay: Binding affinity towards N-terminal ePL-tagged BCDIN3D (unknown origin) transfected in human A549 cells preincubated for 1 hr and measured by InCellPulse thermal stability assay; format: cell-based
[3] = molecular target: T2, RNA 5'-monophosphate methyltransferase (Homo sapiens) (UniProt Q7Z5W3); assay: Inhibition of BCDIN3D in activated CD4+ T cells isolated from human PBMC stimulated with anti-CD3/CD28 and restimulated with PMA and ionomycin for 4 hrs in the presence of brefeldin A assessed as reduction in IFN-gamma production at 100 to 500 nM; format: cell-based; settings: T cell, dose 100-500 nM
T2 sequence (whole entry): T1 sequence (Q7Z5W3 whole entry)

Mus musculus = assay: Antiinflammatory activity in sheep red blood cells (SRBCs)-induced delayed hypersensitivity male CD-1/ICR mouse model at 30 mg/kg administered once daily for 7 days; format: functional, organism-based; settings: time 7.0 day

SMILES | pIC50 [1] | pIC50 [2] | inhibition [3] | Activity (Mus musculus)
Cn1ncc2c(NCC3CC(C(F)(F)F)C3)nc(NC[C@H](N)c3ccccc3)nc21 (stereo partly drawn) | 7.77 | 7.47 | – | –
COc1cc(Nc2nc(NCC3(N)CC3)nc3c2cnn3C)cc(OC)c1 | 5.90 | 5.52 | – | –
Cn1ncc2c(Nc3ccc(C(F)(F)F)nc3)nc(NC[C@@](C)(N)c3ccccc3)nc21 | 7.42 | 6.88 | – | –
Cc1ccc(CNc2nc(NCCN)nc3c2cnn3C)cc1Cl | 5.78 | 5.19 | – | –
Cc1cc(Nc2nc(NCC(N)CF)nc3c2cnn3C)ccc1Cl (stereo not drawn) | 5.21 | 5.26 | – | –
Cn1ncc2c(Nc3ccc(C(F)(F)F)cc3)nc(NCC3(N)COC3)nc21 | – | 5.18 | – | –
Cn1ncc2c(NC(C)(C)C)nc(NC[C@H](N)c3ccccc3)nc21 | – | – | Active | Active
Cn1ncc2c(Nc3ccc(Cl)cc3)nc(NC[C@H](N)c3ccccc3)nc21 | – | – | Active | Active
Cn1ncc2c(Nc3cc(F)cc(F)c3)nc(NCC3(N)CC3)nc21 | 6.00 | 5.33 | – | –
CNc1nc(NC[C@](C)(N)c2ccccc2)nc2c1cnn2C | 5.12 | 4.97 | – | –
Cn1ncc2c(NC34CC(C3)C4)nc(NCC(N)c3ccccc3)nc21 (stereo not drawn) | 6.72 | 6.05 | – | –
Cn1ncc2c(NC3CCC(F)(F)C3)nc(NC[C@H](N)c3ccccc3)nc21 (stereo partly drawn) | 6.35 | 6.24 | – | –
